From PubChem BioAssay (NCI)
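Following 48 hours of exposure in 96-well plates, responses at five concentrations were used to interpolate endpoints linearly. The concentration for 50% growth inhibition is given as GI50. TGI: concentration producing complete growth inhibition.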

Key:
Assay in all cases: DTP human tumour cell line panel, 48 h
[1] = test system: M19-MEL melanoma
[2] = test system: SK-MEL-28 melanoma
[3] = test system: HCT-116 colon
[4] = test system: UACC-257 melanoma
[5] = test system: MALME-3M melanoma
[6] = test system: SK-MEL-2 melanoma
[7] = test system: M14 melanoma
[8] = test system: MDA-MB-231 breast
[9] = test system: MDA-MB-435
[10] = test system: SNB-78 CNS

Row | Compound | TGI [1] [µM] | TGI [2] [µM] | TGI [3] [µM] | TGI [4] [µM] | TGI [5] [µM] | TGI [6] [µM] | TGI [7] [µM] | GI50 [2] [µM] | GI50 [3] [µM] | GI50 [4] [µM] | GI50 [5] [µM] | GI50 [6] [µM] | GI50 [8] [µM] | TGI [8] [µM] | GI50 [9] [µM] | TGI [9] [µM] | GI50 [7] [µM] | TGI [10] [µM]
1 | Cc1cccc(NC(=O)/C=C/c2ccc(N(CCC#N)CCC#N)cc2C)c1 | > 100 | > 100 | > 100 | > 100 | > 100 | > 100 | > 100 |  |  |  |  |  |  |  |  |  |  | 
2 | Cc1[nH]n(-c2cccc(Cl)c2)c(=O)c1/C=C1\C=Nc2ccc(Br)cc21 |  | > 100 | 7.03 | > 100 | 13.1 | 24.6 | > 100 | 19.6 | 2.65 | 85.7 | 3.15 | 10.5 | 3.4 | 15.3 | 6.78 | > 100 | 14.1 | 
3 | O=C(/C=C/c1c(O)ccc2ccccc12)c1ccc2ccccc2c1 | 35.9 | > 100 | > 100 | > 100 | > 100 | > 100 |  |  |  |  |  |  |  |  |  |  |  | > 100
4 | N#CC1Nc2ccccc2[C@@H](O)C1O (stereo partly specified) |  | > 100 | > 100 | > 100 | > 100 | > 100 | > 100 |  |  |  |  |  |  | > 100 |  | > 100 |  | 
5 | O=C(Nc1ccc(Cl)cc1F)c1cc(Br)ccc1O |  | 3.19 | 3.19 | 3.29 | 2.65 | 3.18 | 3.75 | 0.563 | 0.805 | 0.705 | 0.595 | 0.467 | 0.968 | 8.12 | 0.941 | 8.44 | 0.751 | 
6 | Cc1ccc(N(CSc2ccc(Cl)cc2)CSc2ccc(Cl)cc2)cc1 |  | 4.23 | 10.9 | > 100 | 18.4 | 25 | 4.45 | 1.64 | 1.52 | 3.72 | 3.65 | 3.76 | 0.404 | 2.5 | 0.927 | 9.38 | 1.48 | 
7 | COC(=O)[C@@H](NC(=O)[C@@H](OC)[C@@H]1Cc2cc3cc(OC4CC(OC5CC(O)C(O)C(C)O5)C(O)C(C)O4)c(C)c(O)c3c(O)c2C(=O)[C@H]1OC1CC(OC2CC(OC3CC(C)(O)C(O)C(C)O3)C(O)C(C)O2)C(O)C(C)O1)C(C)C (stereo partly specified) |  | 6.04 | > 32.5 | 8.91 | 1.43 | 7.94 | > 32.5 | 0.0971 | 0.0934 | 0.128 | 0.0763 | 0.194 | 0.192 | 19.9 | 0.13 | > 32.5 | 0.147 | 
8 | O=C(CCC(=O)Nc1cccc(Cl)c1)CC(=O)c1ccc(Cl)cc1 |  | > 100 | > 100 | > 100 | > 100 | > 100 | > 100 |  |  |  |  |  |  |  |  |  |  | > 100
9 | O=C(Nc1ccc([N+](=O)[O-])cc1)C1C(=O)C(=O)N(c2ccc([N+](=O)[O-])cc2)C1=O (stereo unspecified) |  | > 100 | > 100 | > 100 | > 100 | > 100 | > 100 |  |  |  |  |  |  |  |  |  |  | > 100
10 | CCOC(=O)c1[nH]c(COC(C)=O)c(CCCOC(C)=O)c1CCCOC(C)=O |  | > 100 | > 100 | > 100 | > 100 | > 100 |  |  |  |  |  |  |  |  |  |  |  | > 100
